“Also recorded” adds a separate entry of the source. Non-standard residues stand in square brackets, D forms with d. Residues, ends and D or L forms follow the SMILES beside them. *: point of attachment. Phe(F5) = N[C@@H](Cc1c(F)c(F)c(F)c(F)c1F)C(=O)O; Desaminotyrosyl = O=C(CCc1ccc(O)cc1)*; NMeY = CN[C@@H](Cc1ccc(O)cc1)C(=O)O; Agmatine = N=C(N)NCCCCN*; Nle = CCCC[C@H](N)C(=O)O; Orn = NCCC[C@H](N)C(=O)O; Abu = CC[C@H](N)C(=O)O; GABA = NCCCC(=O)O
Tests used:
GH release [1] = experiment: In vivo endocrine activity, GH release after subcutaneous administration (Table 9); settings: rat; for GH releasing potency relative to JI-38 (=1): subcutaneous (s.c.) injection; for Stimulation of growth hormone levels after subcutaneous administration (in words): s.c.
Method: Subcutaneous Administration. Adult male rats were used and anesthetized with pentobarbital (6 mg/100 g, b.w.), by i.p. injection. […] Blood samples were taken from the jugular vein 5, 15 and/or 30 minutes after the injection. The blood samples were centrifuged, plasma was removed and the GH level was measured byELISA. The results are summarized in terms of potency in Table 9.

[2] = test system: myocardial infarction (Fisher-344 rats); experiment: Serial echocardiography after MI, compared to JI-38 (Example 15, Table 15); format: in vivo, rat; parameters: key to LVEDD: Left Ventricular End Diastolic Diameter / LVESD: Left Ventricular End Systolic Diameter / VD: Ventricular Diastole / VS: Ventricular Systole / EF: Ejection Fraction / FS: Fraction Shortening: ↓: downward arrow denotes lower than JI-38; ↑: upward arrow denotes greater than JI-38; =denotes same as JI-38; ⬇⬇: double arrow denotes greater effect; ⬆⬆: double arrow denotes greater effect; settings: in comparison to JI-38
Method in brief: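 Female 6-month-old Fisher-344 rats with permanent left coronary artery ligation received placebo, JI-38 or GHRH agonists subcutaneously twice daily from 2 h post-surgery (10 per group). Under 2% isoflurane, M-mode LVEDD, LVESD and FS plus long-axis EF were measured at baseline, 2 days, 1, 2 and 4 weeks.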

[3] = test system: myocardial infarction (Fisher-344 rats); experiment: Hemodynamic analysis (pressure-volume loops), body and heart weight after MI, compared to JI-38 (Example 15, Table 16); format: in vivo, rat; parameters: key to ESP (End-Systolic Pressure) / EDP (End-Diastolic Pressure) / ESV (End-Systolic Volume) / PRSW (Preload Recruitable Stroke Work) / Ees (End-systolic Elastance) / dP/dt max (peak rate of the pressure rise) / dP/dt max_EDV / dP/dt min / TAU (relaxation time constant calculated by Weiss method) / SV (Stroke Volume) / CO (Cardiac Output) / SW (Stroke Work) / EF / Ea/Ees / Ea (arterial Elastance): ↓: downward arrow denotes lower than JI-38; ↑: upward arrow denotes greater than JI-38; =denotes same as JI-38; ⬇⬇: double arrow denotes greater effect; ⬆⬆: double arrow denotes greater effect; settings: rat MI model, s.c. twice daily; pressure-volume loops; expressed in comparison to JI-38
Method in brief: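 Female 6-month-old Fisher-344 rats after permanent left coronary ligation received GHRH agonists subcutaneously twice daily from 2 h post-surgery (n=10/group). Under ketamine/xylazine/acepromazine anesthesia, LV pressure-volume loops were recorded via carotid micromanometer catheter, calibrated by hypertonic saline bolus and cuvette method; echocardiography also serial.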

GH release [4] = experiment: GH releasing potency in vivo, subcutaneous administration (Example 14, Table 12); parameters: species or system rat; settings: for Serum GH level at selected time after injection (ng/ml), 0 min / Serum GH level at selected time after injection (ng/ml), 15 min / Serum GH level at selected time after injection (ng/ml), 30 min: male rats, dose 3 μg/kg, mean ± SEM; for Relative GH-releasing potency compared to JI-38 in s.c. tests (fold, range over time points): time not specified
Method in brief: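 Potency is expressed relative to GHRH(1-29)NH2 and JI-38 (each = 1), via equivalent GHRH(1-29)NH2 dose read from a standard curve. Peptides in 5% mannitol given i.v. or s.c. to anaesthetised male Sprague-Dawley rats (200-250 g); serum GH measured by ELISA at selected times.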

Structure (SMILES)	GH releasing potency relative to JI-38 (=1) (GH release [1]; 15 min after)	GH releasing potency relative to JI-38 (=1) (GH release [1]; 30 min after)	EF: Ejection Fraction [2]	FS: Fraction Shortening [2]	LVEDD: Left Ventricular End Diastolic Diameter [2]	LVESD: Left Ventricular End Systolic Diameter [2]	VD: Ventricular Diastole [2]	VS: Ventricular Systole [2]	CO (Cardiac Output) [3]	EDP (End-Diastolic Pressure) [3]	EF [3]	ESP (End-Systolic Pressure) [3]	ESV (End-Systolic Volume) [3]	Ea (arterial Elastance) [3]	Ea/Ees [3]	Ees (End-systolic Elastance) [3]	PRSW (Preload Recruitable Stroke Work) [3]	SV (Stroke Volume) [3]	SW (Stroke Work) [3]	TAU (relaxation time constant calculated by Weiss method) [3]	also measured
CCCC[C@H](NC(=O)[C@@H](NC(=O)[C@H](CC(=O)O)NC(=O)[C@H](CCC(N)=O)NC(=O)[C@H](CC(C)C)NC(=O)[C@H](CC(C)C)NC(=O)[C@H](CCCN)NC(=O)[C@H](CCCNC(=N)N)NC(=O)[C@H](C)NC(=O)[C@H](CO)NC(=O)[C@H](CC(C)C)NC(=O)[C@H](CCC(N)=O)NC(=O)[C@H](CC)NC(=O)[C@H](CC(C)C)NC(=O)[C@@H](NC(=O)[C@H](CCCN)NC(=O)[C@H](CCCNC(=N)N)NC(=O)[C@H](Cc1ccc(O)cc1)NC(=O)[C@H](CO)NC(=O)[C@H](CC(N)=O)NC(=O)[C@@H](NC(=O)[C@H](Cc1ccccc1)NC(=O)[C@@H](NC(=O)[C@H](C)NC(=O)[C@H](CC(=O)O)NC(=O)[C@@H](C)NC(=O)[C@H](Cc1ccc(O)cc1)NC)[C@@H](C)CC)[C@@H](C)O)C(C)C)[C@@H](C)CC)C(=O)N[C@@H](CC(=O)O)C(=O)NCCCCNC(=N)N [Peptide P-20367, [N—Me-Tyr^1, D-Ala^2, Orn^12, Abu^15, Orn^21, Nle^27, Asp^28, Agm^29]hGHRH(1-29)NH2] (H-[NMeY][dA]DAIFTNSYR[Orn]VL[Abu]QLSAR[Orn]LLQDI[Nle]D-Agmatine)	1.12	2.01	=	=	↑	↑	↑	↑	↑	↑	=	↑	↑	=	↓	=	=	=	↓	=	dP/dt max (peak rate of the pressure rise) [3]: =; dP/dt max_EDV [3]: =; dP/dt min [3]: =; Serum GH level at selected time after injection (ng/ml), 0 min (GH release [4]; s.c.): 41.1 ± 5.6 ng/mL; Serum GH level at selected time after injection (ng/ml), 15 min (GH release [4]; s.c.): 244.0 ± 25.1 ng/mL; Serum GH level at selected time after injection (ng/ml), 30 min (GH release [4]; s.c.): 141.2 ± 12.3 ng/mL; Relative potency compared to GHRH(1-29), 15 min (GH release [4]; s.c.): 68.1; Relative potency compared to JI-38, 15 min (GH release [4]; s.c.): 1.08; Relative potency compared to GHRH(1-29), 30 min (GH release [4]; s.c.): 131.7; Relative potency compared to JI-38, 30 min (GH release [4]; s.c.): 1.18
CCCC[C@H](NC(=O)[C@@H](NC(=O)[C@H](CC(=O)O)NC(=O)[C@H](CCC(N)=O)NC(=O)[C@H](CC(C)C)NC(=O)[C@H](CC(C)C)NC(=O)[C@H](CCCN)NC(=O)[C@H](CCCNC(=N)N)NC(=O)[C@H](C)NC(=O)[C@H](CO)NC(=O)[C@H](CC(C)C)NC(=O)[C@H](CCC(N)=O)NC(=O)[C@H](CC)NC(=O)[C@H](CC(C)C)NC(=O)[C@@H](NC(=O)[C@H](CCCN)NC(=O)[C@H](CCCNC(=N)N)NC(=O)[C@H](Cc1ccc(O)cc1)NC(=O)[C@H](CO)NC(=O)[C@H](CC(N)=O)NC(=O)[C@@H](NC(=O)[C@H](Cc1c(F)c(F)c(F)c(F)c1F)NC(=O)[C@@H](NC(=O)[C@H](C)NC(=O)[C@H](CC(=O)O)NC(=O)[C@@H](C)NC(=O)CCc1ccc(O)cc1)[C@@H](C)CC)[C@@H](C)O)C(C)C)[C@@H](C)CC)C(=O)N[C@@H](CO)C(=O)N[C@@H](CCCNC(=N)N)C(=O)NCCCC(N)=O [Peptide P-25502, [Dat^1, D-Ala^2, Fpa5^6, Orn^12, Abu^15, Orn^21, Nle^27, Gab^30]hGHRH(1-30)NH2] (Desaminotyrosyl-[dA]DAI[Phe(F5)]TNSYR[Orn]VL[Abu]QLSAR[Orn]LLQDI[Nle]SR[GABA]-NH2)	1.10	0.94	=	=	=	=	↑	↑	↓	=	↓	=	=	↑	=	↑	=	↓	=	↓	Stimulation of growth hormone levels after subcutaneous administration (in words) (GH release [1]): stimulated greater growth hormone levels than hGHRH or JI-38; dP/dt max (peak rate of the pressure rise) [3]: =; dP/dt max_EDV [3]: =; dP/dt min [3]: =; potency as compared to JI-38 in both i.v. and s.c. tests (GH release [4]): increased potency as compared to JI-38; Serum GH level at selected time after injection (ng/ml), 0 min (GH release [4]; s.c.): 61.7 ± 8.1 ng/mL; Serum GH level at selected time after injection (ng/ml), 15 min (GH release [4]; s.c.): 266.7 ± 21^ ng/ml; Serum GH level at selected time after injection (ng/ml), 30 min (GH release [4]; s.c.): 153.2 ± 33.3 ng/mL; Relative potency compared to GHRH(1-29), 15 min (GH release [4]; s.c.): 76.5; Relative potency compared to JI-38, 15 min (GH release [4]; s.c.): 1.21; Relative potency compared to GHRH(1-29), 30 min (GH release [4]; s.c.): 152.3; Relative potency compared to JI-38, 30 min (GH release [4]; s.c.): 1.36; Relative GH-releasing potency compared to JI-38 in s.c. tests (fold, range over time points) (GH release [4]; s.c., listed as MR-502): 1.2-1.4
CCCC[C@H](NC(=O)[C@@H](NC(=O)[C@H](CC(=O)O)NC(=O)[C@H](CCC(N)=O)NC(=O)[C@H](CC(C)C)NC(=O)[C@H](CC(C)C)NC(=O)[C@H](CCCN)NC(=O)[C@H](CCCNC(=N)N)NC(=O)[C@H](C)NC(=O)[C@H](CO)NC(=O)[C@H](CC(C)C)NC(=O)[C@H](CCC(N)=O)NC(=O)[C@H](CC)NC(=O)[C@H](CC(C)C)NC(=O)[C@@H](NC(=O)[C@H](CCCN)NC(=O)[C@H](CCCNC(=N)N)NC(=O)[C@H](Cc1ccc(O)cc1)NC(=O)[C@H](CO)NC(=O)[C@H](CCC(N)=O)NC(=O)[C@@H](NC(=O)[C@H](Cc1ccccc1)NC(=O)[C@@H](NC(=O)[C@H](C)NC(=O)[C@H](CC(=O)O)NC(=O)[C@@H](C)NC(=O)[C@H](Cc1ccc(O)cc1)NC)[C@@H](C)CC)[C@@H](C)O)C(C)C)[C@@H](C)CC)C(=O)N[C@@H](CC(=O)O)C(=O)N[C@@H](CCCNC(=N)N)C(=O)NC [Peptide P-27403, [N—Me-Tyr^1, D-Ala^2, Gln^8, Orn^12, Abu^15, Orn^21, Nle^27, Asp^28]hGHRH(1-29)NH—CH3] (H-[NMeY][dA]DAIFTQSYR[Orn]VL[Abu]QLSAR[Orn]LLQDI[Nle]DR-NHMe)	3.60	2.57	=	↓	↑	↑	↑	↑	↑	↑	=	=	↑	=	↓	=	=	=	=	=	Stimulation of growth hormone levels after subcutaneous administration (in words) (GH release [1]): stimulated greater growth hormone levels than hGHRH or JI-38; dP/dt max (peak rate of the pressure rise) [3]: =; dP/dt max_EDV [3]: =; dP/dt min [3]: =; potency as compared to JI-38 in both i.v. and s.c. tests (GH release [4]): increased potency as compared to JI-38; Serum GH level at selected time after injection (ng/ml), 0 min (GH release [4]; s.c.): 39.4 ± 5.3 ng/mL; Serum GH level at selected time after injection (ng/ml), 15 min (GH release [4]; s.c.): 608.7 ± 35.3 ng/mL; Serum GH level at selected time after injection (ng/ml), 30 min (GH release [4]; s.c.): 281.7 ± 18.6 ng/mL; Relative potency compared to GHRH(1-29), 15 min (GH release [4]; s.c.): 223.8; Relative potency compared to GHRH(1-29), 30 min (GH release [4]; s.c.): 448.9; Relative GH-releasing potency compared to JI-38 in s.c. tests (fold, range over time points) (GH release [4]; s.c.): 3.6-4.0; GH-releasing potency after s.c. administration (in words) (GH release [4]; s.c., listed as MR-403): highest GH-releasing potency; also recorded: significantly higher potencies at 30 minutes than at 15 minutes

— US10555987B2, “GHRH agonists for the treatment of ischemic disorders” (UNIVERSITY OF MIAMI, priority 2012, dated 2020)
